For experiment [1], the target named is T1, zinc induced Aß aggregates (Homo sapiens, UniProt P05067).
T1 construct: Effect of bis-ANS on Aβ1-42 Solubility and Precipitation by Zn^2+
The experiment is described as follows: Bis-ANS fluorescence assay: reversal (disaggregation) of zinc induced Aß aggregates. The class given is biochemical. Particulars: bisANS assay, zinc induced aggregates (FIG. 1, solid arrow). The source says:
(§1) Measurement of inhibition or reversal of protein aggregation may be carried out using such assays as Bis-ANS Fluorescence as described in, for example, W. T. Chen et al., J. Biol. Chem, 2011, 286 (11), 9646, or thioflavin T assay as disclosed herein. FIG. 1 depicts the measurement of aggregation prevention by added zinc and disaggregation of zinc induced aggregates by AC047 in a bisANS assay. In the presence of soluble Aß, zinc induces aggregation within milliseconds. This aggregation is detected by an increase in bisANS fluorescence. An excess of EDTA serves as a control by binding zinc and preventing aggregation. Both prevention of aggregation and disaggregation can be detected in the assay. […] The compounds described above were evaluated for the inhibition and reversal of protein aggregation as carried out using such assays as Bis-ANS Fluorescence as described in, for example, J. Biol. Chem, 2011, 286 (11), 9646. All compounds prepared above were measured to show EC50 between 0.000001 to 0.10 mM in both assays in the presence of Zinc (II). Aβ1-42 (25 μM) in Tris-HCl buffer (50 mM, pH7.4) was incubated at RT for 10 min in the presence or absence of ZnCl2 (25 μM) and bis-ANS (50 μM). […] A sample of the supernatant was then collected and compared by dot blot for peptide content to the sample of starting material to quantify how much original peptide had been lost due to precipitation.

The target in experiment [2] is T2, Aß (Homo sapiens, UniProt P05067).
T2 construct: Effect of bis-ANS on Aβ1-42 Solubility and Precipitation by Zn^2+
T2 sequence (P05067 672-713): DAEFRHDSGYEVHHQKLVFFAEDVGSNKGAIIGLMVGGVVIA
Kind of experiment: Bis-ANS fluorescence assay: inhibition (prevention) of zinc induced Aß aggregation. The class given is biochemical. Particulars: bisANS assay, soluble Aß plus added zinc (FIG. 1, dotted arrow).
Description: as §1

SMILES strings stand for the structures.

T1 sequence (P05067 672-713): as above

For the molecule `O=C1c2ccnc3c(O)ccc(c23)C(=O)N1Cc1ccccc1` [AC047, 5-benzyl-9-hydroxy-4H-benzo[de][2,6]naphthyridine-4,6(5H)-dione], in experiment [1], the “elimination of zinc induced Aß aggregates (disaggregation)” value was “can eliminate zinc induced Aß aggregates”. Further, the “prevention of zinc induced aggregation” value in experiment [2] is “can prevent zinc induced aggregation”.

These data come from US10047089B2, “Dihydro-6-azaphenalene derivatives for the treatment of CNS, oncological diseases and related disorders” (Collaborative Medicinal Development, LLC, priority 2012, dated 2018).
